From patent US20040110928A1, “Peptide conjugates for drug delivery” (priority 2000, published 2004) come the findings set out here.

For this assay the following is noted: biotin tag reacted with fluorescently-labelled avidin. The method, then:
In a separate experiment, two synthetic peptides were produced, and covalently attached to a biotin molecule. The sequences were:
The synthetic peptides were assessed for translocation by reacting the biotin tag with fluorescently-labelled avidin.

As for “Biotin-spacer-TPKKAKKPAAAAGASSAKSP-amide [SEQ ID NO. 11]”, the Translocation result is given as “Translocation was observed”.

Regarding “Biotin-spacer-TPKKASSPAAAAGAKKAKSP-amide [SEQ ID NO. 10]”, the Translocation result is “no translocation was observed”.
